Experimental findings from article PMC8012331, “Drug-induced hepatic steatosis in absence of severe mitochondrial dysfunction in HepaRG cells: proof of multiple mechanism-based toxicity” (Cell Biology and Toxicology, 2020) are described below.

One data set has as its system ATP citrate lyase (ACLY). Description: RT-qPCR ACLY mRNA in HepaRG cells. The data set is classed as cell-based, human. To be noted: 4 days, vs control. The method, then:
(§1) Total RNA was extracted with the Nucleospin RNA isolation system purchased from Macherey-Nagel (Düren, Germany), which included a DNase treatment step. Quantification of isolated RNAs was assessed using a Nanodrop 1000 (Thermo Fisher Scientific, Waltham, MA). RNAs were reverse-transcribed into cDNAs using the High-Capacity cDNA Reverse Transcription Kit purchased from Applied Biosystems (Woolston, UK). Gene expression was assessed by real-time quantitative PCR analysis (RT-qPCR) using SYBR Green PCR Master Mix (Applied Biosystems) and a 384-well QuantStudio™ 7 Flex Real-Time PCR System (Thermo Fisher Scientific). Sequences of the primers used to measure gene expression are presented in Supplementary Table 3. Expression of GAPDH was chosen as reference and the 2^−ΔΔCt calculation method was used to express the relative expression of each selected gene.

For data set [1], the system named is fatty acid synthase (FASN). Description: RT-qPCR FASN mRNA in HepaRG cells. To be noted: 4 days, vs control. The format is cell-based, human. The method, then: as §1
For data set [2], the system named is stearoyl-CoA desaturase 1 (hSCD1). Description: RT-qPCR hSCD1 mRNA in HepaRG cells. To be noted: 4 days, vs control. The data set is classed as cell-based, human. The method, then:
as §1

In another data set the test system is HepaRG cells. Description: Neutral lipids with Nile red in HepaRG cells. The settings on record: 4 days, selected concentrations (ATP loss < 30%, not above 100 × Cmax), vs control.
In data set [3] the test system is isolated mouse liver mitochondria. In words: Oxygen consumption of isolated mouse liver mitochondria. The format is biochemical. The settings on record: state 3. The method, then:
For all aforementioned substrates, measurements were performed in parallel without or with 2 μM rotenone in order to calculate (EC20), as previously mentioned. Oxygen consumption was measured in real-time for 60 min at 37 °C in 96-well plates using a spectrofluorometer (Tecan Infinite® 200; λExcitation 380 nm; λEmission 650 nm). The slope of fluorescence increase, corresponding to the rate of oxygen consumption, was used for calculations. EC20 was thus assessed as previously described by compiling the percentage of inhibition obtained from 4 to 12 experiments.

Molecules are shown by their SMILES.

Take `COc1ccc2c(c1)c(CC(=O)O)c(C)n2C(=O)c1ccc(Cl)cc1` [INDO, indomethacin]: in the data set on ATP citrate lyase (ACLY), the “ACLY mRNA level” value is given as “augmented mRNA abundance”. The “FASN mRNA level” value in data set [1] is recorded as “augmented mRNA abundance”. The “hSCD1 mRNA level” value in data set [2] is “also increased hSCD1 mRNA level”.
Take `CO[C@H]1/C=C/O[C@@]2(C)Oc3c(C)c(O)c4c(O)c(c(/C=N/N5CCN(C)CC5)c(O)c4c3C2=O)NC(=O)/C(C)=C\C=C\[C@H](C)[C@H](O)[C@@H](C)[C@@H](O)[C@@H](C)[C@H](OC(C)=O)[C@@H]1C` [RIF, rifampicin]: the “Accumulation of neutral lipids (steatosis)” value with HepaRG cells is on record as “significant accumulation of neutral lipids”. For the same compound, in data set [3], the “EC20 for inhibition of O2 consumption, glutamate/malate” value was 34 ± 12 µM; the “EC20 for inhibition of O2 consumption, octanoyl-L-carnitine” value worked out at 17 ± 2 µM; the “EC20 for inhibition of O2 consumption, palmitoyl-L-carnitine” value was determined as 16 ± 3 µM; the “EC20 for inhibition of O2 consumption, palmitoyl-coenzyme A + L-carnitine” value was determined as 20 ± 4 µM.
